Tests used:
Amaranthus retroflexus = assay: Post-emergence application in field trials, AMARE; format: in vivo
Protocol: (§1) In the examples below, using the method of S. R. Colby (1967) “Calculating synergistic and antagonistic responses of herbicide combinations”, Weeds 15, p. 22ff., the value E, which is expected if the activity of the individual active compounds is only additive, was calculated:
(§2) [formula] • where • X=percent activity using active herbicide A at an application rate a; • Y=percent activity using active herbicide B (i.e. isoxaflutole) at an application rate b; • E=expected activity (in %) by A+B at application rates a+b.
(§3) If the value found experimentally is higher than the value E calculated according to Colby, a synergistic effect is present.
(§4) On field test sites, natural weed infestation or seeded weeds were treated post-emergence of the weeds.
(§5) In the field trials, the weeds were treated as indicated below.
(§6) In the following experiments, the herbicidal activity for the individual herbicidal compositions (solo and mixture applications) was assessed at the indicated days after treatment (DAT). The assessments for the damage on undesired weeds caused by the composition was carried out using a scale from 0 to 100%, compared to the untreated control plants. Here, 0 means no damage and 100 means complete destruction of the plants.
(§7) Herbicide A-1 and isoxaflutole (240 g/l SC, Balance Flexx®) were, together with addition of 0.25 v/v % MSO (methylated sed oil) as adjuvant, formulated in water as distribution medium (water volume 200 l/ha) and sprayed with commercial flat fan nozzles.
(§8) Herbicide A-1, isoxaflutole (240 g/l SC), saflufenacil (342 g/l) and pyroxasulfone were, together with addition of 0.25 v/v % MSO (methylated sed oil) as adjuvant, formulated in water as distribution medium (water volume 200 l/ha) and sprayed with commercial flat fan nozzles.

Hordeum vulgare = assay: Post-emergence application in field trials, HORVX; format: in vivo; conditions: HORVX growth stage 23-29
Protocol: as §1, §2, §3, §4, §5, §6, §7

Zea mays = assay: Post-emergence application in field trials, ZEAMX; format: in vivo
Protocol: as §1, §2, §3, §4, §5, §6
(§9) Herbicide A-1 and isoxaflutole (240 g/l SC) were, together with addition of 0.25 v/v % MSO (methylated sed oil) as adjuvant, formulated in water as distribution medium (water volume 200 l/ha) and sprayed with commercial flat fan nozzles.
as §7
(§10) Herbicide A-1, isoxaflutole (240 g/l SC) and saflufenacil (342 g/l) were, together with addition of 0.25 v/v % MSO (methylated sed oil) as adjuvant, formulated in water as distribution medium (water volume 200 l/ha) and sprayed with commercial flat fan nozzles.
as §8

Setaria verticillata = assay: Post-emergence application in field trials, SETVE; format: in vivo; conditions: SETVE growth stage 21-23
Protocol: as §1, §2, §3, §4, §5, §6, §9, §7

Lolium multiflorum = assay: Post-emergence application in field trials, LOLMU; format: in vivo; conditions: LOLMU height 20-25 cm, 100 g ai/ha
Protocol: as §1, §2, §3, §4, §5, §6, §8

Abuthilon theophrasti = assay: Post-emergence application in field trials, ABUTH; format: in vivo; conditions: ABUTH growth stage 14-16
Protocol: as §1, §2, §3, §4, §5, §6, §7

Spermacoce latifolia = assay: Post-emergence application in field trials, BOILF; format: in vivo; conditions: Table 1.1; BOILF growth stage 40; 21 DAT; 100 g ai/ha
Protocol: as §1, §2, §3, §4, §5, §6
Herbicide A-1 and isoxaflutole (75% WG) were, together with addition of 0.5 v/v % MSO (methylated sed oil) as adjuvant, formulated in water as distribution medium (water volume 200 l/ha) and sprayed with commercial flat fan nozzles.

Echinochloa crus-galli = assay: Post-emergence application in field trials, ECHCG; format: in vivo
Protocol: as §1, §2, §3, §4, §5, §6, §9, §7, §10, §8

Ipomoea triloba = assay: Post-emergence application in field trials, IPOTR; format: in vivo; conditions: Table 1.1; IPOTR growth stage 35; 21 DAT; 100 g ai/ha
Protocol: as §1, §2, §3, §4, §5
(§11) In the following experiments, the herbicidal activity for the individual herbicidal compositions (solo and mixture applications) was assessed at the indicated days after treatment (DAT). The assessments for the damage on undesired weeds caused by the composition was carried out using a scale from 0 to 100%, compared to the untreated control plants. Here, 0 means no damage and 100 means complete destruction of the plants. […]

Datura stramonium = assay: Post-emergence application in field trials, DATST; format: in vivo; conditions: 100 g ai/ha
Protocol: as §1, §2, §3, §4, §5, §6, §9, §10

HORVW = assay: Post-emergence application in field trials, HORVW; format: in vivo, Hordeum vulgare; conditions: HORVW height 20-25 cm, 100 g ai/ha
Protocol: as §1, §2, §3, §4, §5, §6, §8

Glycine max = assay: Post-emergence application in field trials, GLXMA; format: in vivo; conditions: GLXMA growth stage 13, 100 g ai/ha
Protocol: as §1, §2, §3, §4, §5, §6, §9

Euphorbia heterophylla = assay: Post-emergence application in field trials, EPHHL; format: in vivo; conditions: Table 1.1; EPHHL growth stage 35; 21 DAT; 100 g ai/ha
Protocol: as §1, §2, §3, §4, §5, §11

Amaranthus hybridus = assay: Post-emergence application in field trials, AMACH; format: in vivo; conditions: Table 1.1; AMACH growth stage 35; 21 DAT; 100 g ai/ha
Protocol: as §1, §2, §3, §4, §5, §11

Compound: CS(=O)(=O)c1cc(C(F)(F)F)ccc1C(=O)c1cnoc1C1CC1 [B, isoxaflutole]
- % herbicidal activity (Amaranthus retroflexus; Table 3.4, AMARE growth stage 31-49, 42 DAT, 80 g ai/ha): 45%
- % herbicidal activity (Amaranthus retroflexus; Table 5.4, AMARE height 8-20 cm, 7 DAT, 100 g ai/ha): 30%
- % herbicidal activity (Hordeum vulgare; Table 3.1, 7 DAT, 56 g ai/ha): 10%
- % herbicidal activity (Hordeum vulgare; Table 3.1, 7 DAT, 80 g ai/ha): 10%
- % herbicidal activity (Hordeum vulgare; Table 3.2, 21 DAT, 56 g ai/ha): 10%
- % herbicidal activity (Hordeum vulgare; Table 3.2, 21 DAT, 80 g ai/ha): 10%
- % herbicidal activity (Zea mays; Table 2.1, ZEAMX growth stage 15-16, 7 DAT, 100 g ai/ha): 10%
- % herbicidal activity (Zea mays; Table 3.2, ZEAMX growth stage 15-16, 21 DAT, 56 g ai/ha): 0%
- % herbicidal activity (Zea mays; Table 3.2, ZEAMX growth stage 15-16, 21 DAT, 80 g ai/ha): 0%
- % herbicidal activity (Zea mays; Table 3.3, ZEAMX growth stage 15-16, 28 DAT, 56 g ai/ha): 0%
- % herbicidal activity (Zea mays; Table 4.1, ZEAMX growth stage 15-16, height 25-30 cm, 7 DAT, 100 g ai/ha): 10%
- % herbicidal activity (Zea mays; Table 5.12, 7 DAT, height 25-30 cm, B 100 g ai/ha): 10%
- % herbicidal activity (Zea mays; Table 5.4, ZEAMX height 25-30 cm, 7 DAT, 100 g ai/ha): 10%
- % herbicidal activity (Zea mays; Table 5.5, ZEAMX height 25-30 cm, 21 DAT, 100 g ai/ha): 7%
- % herbicidal activity (Zea mays; Table 5.6, ZEAMX height 25-30 cm, 28 DAT, 100 g ai/ha): 0%
- % herbicidal activity (Zea mays; Table 5.7, ZEAMX height 25-30 cm, 7 DAT, 100 g ai/ha): 10%
- % herbicidal activity (Zea mays; Table 5.8, ZEAMX height 25-30 cm, 21 DAT, 100 g ai/ha): 7%
- % herbicidal activity (Zea mays; Table 5.9, ZEAMX height 25-30 cm, 28 DAT, 100 g ai/ha): 0%
- % herbicidal activity (Setaria verticillata; Table 2.1, 7 DAT, 100 g ai/ha): 20%
- % herbicidal activity (Setaria verticillata; Table 3.4, 42 DAT, 56 g ai/ha): 20%
- % herbicidal activity (Lolium multiflorum; Table 5.4, 7 DAT): 20%
- % herbicidal activity (Lolium multiflorum; Table 5.8, 21 DAT): 20%
- % herbicidal activity (Abuthilon theophrasti; Table 3.1, 7 DAT, 56 g ai/ha): 40%
- % herbicidal activity (Abuthilon theophrasti; Table 3.2, 21 DAT, 56 g ai/ha): 45%
- % herbicidal activity (Abuthilon theophrasti; Table 3.2, 21 DAT, 80 g ai/ha): 65%
- % herbicidal activity (Abuthilon theophrasti; Table 3.4, 42 DAT, 56 g ai/ha): 45%
- % herbicidal activity (Abuthilon theophrasti; Table 3.4, 42 DAT, 80 g ai/ha): 60%
- % herbicidal activity (Spermacoce latifolia): 27%
- % herbicidal activity (Echinochloa crus-galli; Table 2.1, ECHCG growth stage 23-30, 7 DAT, 100 g ai/ha): 40%
- % herbicidal activity (Echinochloa crus-galli; Table 3.1, ECHCG growth stage 23-30, 7 DAT, 80 g ai/ha): 70%
- % herbicidal activity (Echinochloa crus-galli; Table 3.2, ECHCG growth stage 23-30, 21 DAT, 56 g ai/ha): 80%
- % herbicidal activity (Echinochloa crus-galli; Table 3.2, ECHCG growth stage 23-30, 21 DAT, 80 g ai/ha): 80%
- % herbicidal activity (Echinochloa crus-galli; Table 4.1, ECHCG growth stage 23-30, height 15-20 cm, 7 DAT, 100 g ai/ha): 40%
- % herbicidal activity (Echinochloa crus-galli; Table 5.4, ECHCG height 15-20 cm, 7 DAT, 100 g ai/ha): 40%
- % herbicidal activity (Ipomoea triloba): 19%
- % herbicidal activity (Datura stramonium; Table 2.1, DATST growth stage 14-16, 7 DAT): 25%
- % herbicidal activity (Datura stramonium; Table 2.3, DATST growth stage 14-16, 21 DAT): 50%
- % herbicidal activity (Datura stramonium; Table 4.2, DATST growth stage 14-16, height 5-10 cm, 42 DAT): 50%
- % herbicidal activity (HORVW; Table 5.5, 21 DAT): 10%
- % herbicidal activity (HORVW; Table 5.6, 28 DAT): 10%
- % herbicidal activity (HORVW; Table 5.8, 21 DAT): 10%
- % herbicidal activity (Glycine max; Table 2.1, 7 DAT): 25%
- % herbicidal activity (Glycine max; Table 2.2, 21 DAT): 35%
- % herbicidal activity (Glycine max; Table 2.3, 21 DAT): 40%
- % herbicidal activity (Euphorbia heterophylla): 22%
- % herbicidal activity (Amaranthus hybridus): 30%

Source: patent publication US12616201B2, “Herbicidal compositions comprising isoxaflutole” (BASF SE, priority 2024, dated 2026)
